Common to all, as to format: cell-based, human
The test system of experiment [1] is hiPSCs. Kind of experiment: hiPSC monolayer hematopoietic differentiation (iCD34 platform), CD34+ HE population at D10 by flow cytometry. As for the experimental part:
The iCD34 platform is an optimized system for hematopoietic lineage cells differentiation. To initiate differentiation towards the hematopoietic lineage, hiPSCs were seeded as a monolayer on Day (D) 0 in the maintenance medium and allowed to adhere and expand for about 24 hours. At this point, the maintenance medium was removed and replaced with base medium without maintenance factors at D1. Hematopoietic differentiation was initiated at around D2 by switching the culture medium to iCD34−A (see FIG. 1). […] The monolayers were maintained until around D5-D6 at which point they were dissociated into single cells and seeded as a low density monolayer in iCD34−C medium until differentiation around D10. Low oxygen tension (2-10% O2) was maintained from the onset of hematopoietic differentiation around D2 up until around D10 of differentiation.
During the culture process, the directed differentiation towards the hematopoietic lineage was monitored by the dissociation of the monolayers into single cells and analysis for the surface marker expression of CD34, and optionally, CD43, CD45, CXCR4, CD73 and/or CD93 (FIG. 4A). At around D8 of differentiation, the appearance of a cell population representing HE was observed by the cell surface expression signature CD34+. CD43−CXCR4−CD73− was also observed in the CD34+ cells. The CD34+ population was maintained until around D10 (FIG. 4A). At D10, which time point can be shortened to about D9 or extended until about D12, the cells were dissociated into single cells and the CD34+ HE population was sorted by FACS using a BD FACS Aria for further analysis and functional assessment.
To optimize the efficient generation of HE from hiPSCs after around 10 days of differentiation several parameters were examined. The optimal plating density of the monolayers at D0 of differentiation was assessed by plating increasing numbers of hiPSCs from 7.5×10^4/well to 1.5×10^5/well on Matrigel™-coated 6 well culture dishes and then analyzing the generation of the CD34+ HE population at about D10. […] Despite this decrease, the highest conversion rate of hiPSCs to HE after 10 days of monolayer differentiation was at the highest plating density tested at 1.5×10^5/well (FIG. 4C).
The effect of the concentration of BMP4 modulation during the initial stages of hematopoietic differentiation on the generation of HE was assessed by treating the cultures with increasing concentrations of BMP4 ranging from 0 ng/ml to 30 ng/ml from about D2 to about D6 of differentiation. The generation of HE at D10 was assessed by the detection of the CD34+ HE population.
The Wnt pathway activator CHIR99021 is responsible for the induction of the definitive hematopoietic program from hiPSCs. The effect of the modulation of CHIR during the induction phase of the hematopoietic differentiation protocol was assessed by treating the cultures with increasing concentrations of CHIR from about D3.75 to about D6.
For orientation: A flow cytometer gives signals particle by particle.

In experiment [2] the test system is hiPSCs. Kind of experiment: WNT signaling modulation from day 6 of differentiation, CD34+CD43-CD93- HE analyzed at Day 10. As for the experimental part: To optimize the efficient generation of definitive HE from hiPSCs after 10 days of directed differentiation, the effect of modulation of the WNT signaling pathway was examined. At day 6 of differentiation, cell cultures were differentiated in the presence of the GSK3 inhibitor CHIR99021, a Wnt agonist, or IWP2, a WNT inhibitor (FIG. 29A). The generation of CD34+CD43−CD93− HE was analyzed at Day 10.

In experiment [3] the test system is Day 10 CD34+CD43- cells. Kind of experiment: MPP differentiation of WNT modulated HE. As for the experimental part:
Approximately 30,000 CD34+ HE cells were plated as a monolayer in iMPP-A media and further cultured for 6-8 days. FIG. 6A illustrates the phenotypic alterations in the monolayer cultures with the emergence of round hematopoietic cells and flow cytometric staining identifies the presence of CD45+ over the 6-8 day culture period.
(§1) To determine the potency of the WNT modulated HE, the pan-hematopoietic and lymphoid potential of the untreated, IWP2- and CHIR99021-treated HE was each assessed. Day 10 CD34+CD43− cells were isolated by FACS and plated in MPP differentiation and iNK differentiation cultures as provided herein.

The test system of experiment [4] is Day 10 CD34+CD43- cells. The experiment is described as follows: iNK differentiation of WNT modulated HE. As for the experimental part:
Specific to NK cells, upon sorting, the HE cells were cultured on low attachment tissue culture plates in iNK-A2 serum-free differentiation media containing SCF, TPO, Flt3L, IL3, IL15, and IL7 (FIG. 3). After 5 days, the cells were transferred to adherent cultures containing DLL4-expressing stromal cells in iNK-B2 differentiation media containing SCF, IL3, IL15, Flt3L and IL7 to complete NK cell differentiation. After approximately 10-15 days of culturing (post HE isolation) the cell culture was assessed for the generation of NK cell progenitors followed by mature NK subsets following an additional 10-15 days of culturing. CD56 and CD161 (NKR-P1A) are the first cell surface markers to be expressed during early NK cell development followed by the expression of CD16, KIR, CD8 and NKG2D (CD314) on later mature NK cell subsets. FIG. 11 depicts the in vitro differentiation capability of the Day 10 HE population to give rise to early NK cell progenitors and mature NK cell subsets by analysis of a CD45+ population generated in the co-cultures.
as §1

In experiment [5] the test system is umbilical cord blood CD34+ cells. Kind of experiment: Stromal-free NK differentiation on plate-bound DLL4 protein, cord blood cells. The conditions noted are these: versus stromal-based and stromal-free control cultures. As for the experimental part:
Specific to NK cells, enriched umbilical cord blood CD34+ cells were plated in iNK-A2 serum-free differentiation media containing SCF, Flt3L, TPO, IL3, IL15 and IL7 in culture plates containing DLL4 protein or control protein. After 5 days the iNK-B2 medium was maintained to complete NK cell differentiation. After approximately 10-15 days of culture, the culture was assessed for the generation of NK cell progenitors and the absence of myeloid cells. CD56, CD7 and CD161 are the first cell surface markers to be expressed during NK cell development. CD11b and CD14 are cell surface markers expressed on myeloid cell subsets. FIG. 18 depicts stromal-free differentiation of umbilical cord blood CD34+ cells towards NK cells. […] Early NK lineage markers identify the presence of ipro-NK cells as defined by CD56, CD7 and CD161 and the absence of myeloid markers CD11b and CD14.

The subject of experiment [6] is Day 10 CD34+ iHE sorted cells. The experiment is described as follows: Stromal-free NK differentiation on plate-bound DLL4 protein, hiPSC-derived cells. The text has this: Then the hiPSC-derived CD34+ cells were differentiated towards the NK cell lineage for 20 days and then placed in suspension culture for further maturation. […] After 5 days iNK-B2 media was maintained to complete NK cell differentiation. Markers for identifying the presence of mature NK cells include CD56, CD122, NKp30, CD94, CD16, NKG2D and KIR.

[7] abbreviates: CHIR from about D3.75 to about D6.

As to `Cc1c[nH]c(-c2cnc(NCCNc3ccc(C#N)cn3)nc2-c2ccc(Cl)cc2Cl)n1` [CHIR99021], in experiment [1] (setting [7]), the “effect of increasing concentration on percentage of the HE subpopulation” value was “decreases the percentage of the HE subpopulation”, the “effect of increasing concentration on total percentage of CD34+ cells” value was “increases the total percentage of CD34+ cells” and the “optimal concentration of CHIR99021 for HE subpopulation” value was “approximately 1 uM”. Further, the “number and percentage of phenotypic CD34+CD43-CD93- HE (FIG. 29B legend)” value in experiment [2] was “increased the number and the percentage”. Further, in experiment [2] (treated from day 6), the “HE cellularity (total HE cell number, HE proliferation)” value is recorded as “improved HE cellularity” and the “percentage of CD34+CD43- cells at Day 10” value is “slight decrease”. For the same molecule, the “increase in number and percentage of phenotypic CD34+CD43-CD93- HE” value in experiment [2] (treated from day 6, Day 10) is reported as 2-3 fold. Moreover, in experiment [3], the “production of CD45+ cells from the modulated HE (FIG. 30A legend)” value was “increased the production of CD45+ cells”. Moreover, the “increased presence of CD45+ cells (hematopoietic potency)” value in experiment [3] (after 7 days of MPP differentiation) is on record as 5-6 fold. The “production of NK progenitor cells from the modulated HE (FIG. 30B legend)” value in experiment [4] is recorded as “increased the production of NK progenitor cells”. The “increased presence of CD56+CD7+ NK progenitor cells (lymphoid capacity)” value in experiment [4] (after 20 days of iNK differentiation) is 5-6 fold.

On to `Cc1ccc2nc(NC(=O)CSc3nc4c(c(=O)n3-c3ccccc3)SCC4)sc2c1` [IWP2], for which, in experiment [2] (treated from day 6), the “HE cell numbers at Day 10” value was “overall decrease in HE cell numbers” and the “percentage of phenotypic HE at Day 10” value is on record as “did not affect the percentage of phenotypic HE”.

In the case of “DLL4: plate-bound DLL4 protein, Notch activator”, the “differentiation of CD56+CD7+CD161+ NK cell progenitors” value in experiment [5] was “supports a more rapid and efficient differentiation”. Moreover, the “differentiation of NK cell progenitors versus myeloid cells” value in experiment [6] is “supports the differentiation of CD56+CD7+CD161+ NK cell progenitors but not CD11b+ myeloid cells”.

B1: BMP4: bone morphogenetic protein, BMP pathway activator (protein, UniProt P12644 293-408, looked up)
Bone morphogenetic protein 4: SPKHHSQRARKKNKNCRRHSLYVDFSDVGWNDWIVAPPGYQAFYCHGDCPFPLADHLNSTNHAIVQTLVNSVNSSIPKACCVPTELSAISMLYLDEYDKVVLKNYQEMVVEGCGCR
As to B1, in experiment [1] (BMP4 0 ng/ml to 30 ng/ml from about D2 to about D6), the “optimal concentration of BMP4 for HE population at D10” value was “about 3 ng/mL”. Further, the “effect of increasing BMP4 concentration on HE population at D10” value in experiment [1] (BMP4 from D2 to D6, below a threshold concentration) is given as “increases the HE population at D10”.

The record behind these values is patent US10858628B2, “Methods and compositions for inducing hematopoietic cell differentiation” (Fate Therapeutics, Inc., priority 2015, dated 2020).
